Data as given in patent US6056958A, “Method of treatment of arterial and venous thromboembolic disorders” (Dupont Pharmaceuticals, priority 1997, dated 2000).
Non-standard residues stand in square brackets, D forms with d. Residues, ends and D or L forms follow the SMILES beside them. 3Amb = NCc1cccc(C(=O)O)c1

How the values were obtained:
Platelet Aggregation = assay: In Vivo Platelet Aggregation Inhibition in Dog; details: IV
αv /β3 receptor = target: T1, αv /β3 receptor (Homo sapiens, UniProt P05106+P06756); assay: αv/β3-Biotinylated Vitronectin Binding Assay; details: for IC50: inhibition of vitronectin binding to purified αv/β3; for Relative Binding Affinity for αv /β3 Relative to GPIIb/IIIa: ratio of IC50 values (GPIIb/IIIa over αv/β3)
T1 construct: The αv /β3 receptor was isolated from human placental extracts prepared using octylglucoside; from tissue
Text: Compounds may be tested for their ability to block binding of vitronectin to the αv /β3 receptor and to block the binding of fibrinogen to GPIIb/IIIa receptor in the αv /β3 -Biotinylated Vitronectin Binding Assay and GPIIb/IIIa Receptor-Biotinylated Fibrinogen Binding Assay described below.
αv /β3 -Biotinylated Vitronectin Binding Assay
The αv /β3 receptor was isolated from human placental extracts prepared using octylglucoside. The extract was passed over an anti-αv /β3 monoclonal antibody (LM609) affinity column (prepared using LM609 and Affigel 10). The column was subsequently washed extensively at pH 7 and pH 4.5 followed by elution at pH 3. The resulting sample was concentrated by wheat germ agglutinin chromatography to provide a αv /β3 -containing sample which gave two bands on SDS-PAGE which were confirmed as αv /β3 by western blotting.
The affinity purified αv /β3 protein as described above was diluted at different levels and plated to 96 well plates (about 15 ng of αv /β3 protein per well). ELISA detection of αv /β3 -bound biotinylated vitronectin was performed as described below using fixed concentration of biotinylated vitronectin (approximately 80 nM/well). This αv /β3 receptor preparation contains the αv /β3 with no detectable levels of αv /β5 according to the gel and according to effects of blocking antibodies for the αv /β3 or αv /β5 in the ELISA.
A submaximal concentration of biotinylated vitronectin was selected based on concentration response curves with fixed αv /β3 receptor concentration and variable concentrations of biotinylated vitronectin.
The purified αv /β3 receptor is diluted with coating buffer (20 mM Tris HCl, 150 mM NaCl, 2.0 mM CaCl2, 1.0 mM MgCl2.6H2 O, 1.0 mM MnCl2.4H2 O) and coated (100 μL/well) on Costar (3590) high capacity 96-well plates overnight at 4° C. The coating solution is discarded and the plates washed once with blocking/binding buffer (B/B buffer: 50 mM Tris HCl, 100 mM NaCl, 2.0 mM CaCl2, 1.0 mM MgCl2.6H2 O, 1.0 mM MnCl2.4H2 O). The plate-immobilized αv /β3 receptor is then blocked (200 μl/well) with 3.5% BSA in B/B buffer for 2 hours at room temperature. After washing once with 1.0% BSA in B/B buffer, biotinylated vitronectin (100 μL) and either test compound (inhibitor) (11 μL) or B/B buffer w/1.0% BSA (11 μL) is added to each well. The plates are incubated 2 hours at room temperature. The plates are washed twice with B/B buffer and incubated 1 hour at room temperature with anti-biotin alkaline phosphatase (100 μL/well) in B/B buffer containing 1.0% BSA. The plates are washed twice with B/B buffer and alkaline phosphatase substrate (100 μL) is added. Color is developed at room temperature. Color development is stopped by addition of 2N NaOH (25 μL/well) and absorbance is read at 405 nm.
The inhibitory binding constant (Ki) of test agents 30 may be calculated under this assay system using Michaelis-Menten analysis. The IC50 is the concentration of test substance needed to block 50% of the vitronectin binding to the αv /β3 receptor. The IC50 for the inhibition of binding of vitronectin to the αv /β3 receptor was determined based on time averaged values for the inhibition of vitronectin binding. Thus, the inhibition of vitronectin binding for each concentration of test compound was measured every 30 seconds over a 2 hour period and the average value of inhibition of vitronectin binding over such 2 hour period was used for the determination of the IC50.

T1 sequence (P06756 31-889 limits assumed): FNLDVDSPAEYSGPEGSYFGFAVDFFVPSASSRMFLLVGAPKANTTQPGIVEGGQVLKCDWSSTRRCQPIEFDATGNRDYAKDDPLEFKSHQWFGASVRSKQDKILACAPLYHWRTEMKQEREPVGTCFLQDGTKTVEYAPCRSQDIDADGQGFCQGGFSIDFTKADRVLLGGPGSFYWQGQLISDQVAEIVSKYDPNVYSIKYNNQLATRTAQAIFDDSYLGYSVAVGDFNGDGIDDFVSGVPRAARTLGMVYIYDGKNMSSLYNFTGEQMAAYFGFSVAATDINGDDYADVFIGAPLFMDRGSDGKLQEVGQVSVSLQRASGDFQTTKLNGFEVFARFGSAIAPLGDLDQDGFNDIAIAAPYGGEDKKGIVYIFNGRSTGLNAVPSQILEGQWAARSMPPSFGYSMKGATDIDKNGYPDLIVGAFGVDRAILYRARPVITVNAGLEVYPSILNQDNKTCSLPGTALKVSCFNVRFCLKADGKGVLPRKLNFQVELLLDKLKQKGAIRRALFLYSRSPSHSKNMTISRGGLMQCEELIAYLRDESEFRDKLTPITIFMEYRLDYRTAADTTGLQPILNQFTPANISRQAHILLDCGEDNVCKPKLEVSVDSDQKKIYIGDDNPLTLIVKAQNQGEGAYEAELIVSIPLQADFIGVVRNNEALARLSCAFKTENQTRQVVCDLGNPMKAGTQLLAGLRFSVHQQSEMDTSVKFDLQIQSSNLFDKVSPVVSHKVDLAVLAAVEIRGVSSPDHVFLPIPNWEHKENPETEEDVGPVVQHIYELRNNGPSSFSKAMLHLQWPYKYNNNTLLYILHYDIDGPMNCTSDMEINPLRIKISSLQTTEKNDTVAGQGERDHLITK
T1 sequence (P06756 891-1048 partner limits assumed): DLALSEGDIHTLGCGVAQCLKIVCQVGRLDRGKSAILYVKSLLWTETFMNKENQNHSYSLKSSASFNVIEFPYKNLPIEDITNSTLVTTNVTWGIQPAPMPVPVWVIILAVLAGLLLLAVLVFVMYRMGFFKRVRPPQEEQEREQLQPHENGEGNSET
T1 sequence (P05106 27-788): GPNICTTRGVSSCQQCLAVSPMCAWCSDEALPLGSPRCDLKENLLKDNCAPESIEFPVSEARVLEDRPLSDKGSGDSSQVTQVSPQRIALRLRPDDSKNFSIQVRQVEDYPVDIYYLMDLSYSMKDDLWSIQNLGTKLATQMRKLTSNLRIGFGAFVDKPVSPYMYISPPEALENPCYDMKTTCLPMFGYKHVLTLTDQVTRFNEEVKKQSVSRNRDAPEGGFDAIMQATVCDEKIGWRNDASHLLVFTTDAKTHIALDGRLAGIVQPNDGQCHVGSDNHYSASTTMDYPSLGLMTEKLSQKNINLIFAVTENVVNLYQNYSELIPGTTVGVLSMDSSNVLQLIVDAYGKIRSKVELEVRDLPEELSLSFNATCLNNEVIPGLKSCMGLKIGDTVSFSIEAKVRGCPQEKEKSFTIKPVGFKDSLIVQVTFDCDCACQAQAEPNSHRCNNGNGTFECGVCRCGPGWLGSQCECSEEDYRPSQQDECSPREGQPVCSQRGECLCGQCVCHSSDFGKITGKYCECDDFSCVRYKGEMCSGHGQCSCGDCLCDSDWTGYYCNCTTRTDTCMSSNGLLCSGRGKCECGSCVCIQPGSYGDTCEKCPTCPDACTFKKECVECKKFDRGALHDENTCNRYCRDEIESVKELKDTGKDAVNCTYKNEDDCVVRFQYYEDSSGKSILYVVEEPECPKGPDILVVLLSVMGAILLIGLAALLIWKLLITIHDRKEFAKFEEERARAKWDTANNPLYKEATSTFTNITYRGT

C[C@@H]1NC(=O)c2cccc(c2)CNC(=O)[C@H](CC(=O)O)NC(=O)CNC(=O)[C@H](CCCNC(=N)N)NC1=O [Compound A, cyclo-(Ala-Arg-Gly-Asp-Mamb)] (cyclo(RGD[3Amb]A))
Platelet Aggregation Inhibition (%) (Platelet Aggregation; 1 mg/kg): 0-10% | Platelet Aggregation Inhibition (%) (Platelet Aggregation; 3 mg/kg): 10-20% | Platelet Aggregation Inhibition (%) (Platelet Aggregation; 10 mg/kg): 30-50% | IC50 (αv /β3 receptor): 3.8 nM | Relative Binding Affinity for αv /β3 Relative to GPIIb/IIIa (αv /β3 receptor): 107

N=C(N)NCCC[C@@H]1NC(=O)[C@@H]2CCCN2C(=O)c2cccc(c2)CNC(=O)[C@H](CC(=O)O)NC(=O)CNC1=O [Compound B, cyclo-(Pro-Arg-Gly-Asp-Mamb)] (cyclo(RGD[3Amb]P))
Platelet Aggregation Inhibition (%) (Platelet Aggregation; 1 mg/kg): 0-10% | Platelet Aggregation Inhibition (%) (Platelet Aggregation; 3 mg/kg): 0-10% | Platelet Aggregation Inhibition (%) (Platelet Aggregation; 10 mg/kg): 10-20% | IC50 (αv /β3 receptor): 0.7 nM | Relative Binding Affinity for αv /β3 Relative to GPIIb/IIIa (αv /β3 receptor): 2171
